Experimental data taken from publication PMC9646675 (Nature, 2022).

What was measured:
[1] = target: T1, uncoupling protein 1 (UCP1) (Mus musculus, UniProt P12242); test: whole-IMM patch clamp, dose-dependent inhibition of IH induced by […] DNP; format: biochemical
T1 sequence (P12242 1-307): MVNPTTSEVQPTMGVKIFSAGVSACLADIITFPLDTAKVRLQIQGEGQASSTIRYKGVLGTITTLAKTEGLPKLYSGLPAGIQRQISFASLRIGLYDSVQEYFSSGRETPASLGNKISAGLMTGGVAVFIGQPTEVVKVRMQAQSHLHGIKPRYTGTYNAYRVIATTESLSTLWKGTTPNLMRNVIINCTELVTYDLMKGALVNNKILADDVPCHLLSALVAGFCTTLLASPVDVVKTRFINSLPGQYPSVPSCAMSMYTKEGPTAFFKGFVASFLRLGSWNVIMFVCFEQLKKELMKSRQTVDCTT

[2] = target: T1, uncoupling protein 1 (UCP1); test: whole-IMM patch clamp, WT vs UCP1-/-; format: cell-based
ADP/ATP carrier AAC1 = target: T2, ADP/ATP carrier AAC1 (Mus musculus, UniProt P48962); test: whole-IMM patch clamp; format: cell-based
T2 sequence (P48962 2-298): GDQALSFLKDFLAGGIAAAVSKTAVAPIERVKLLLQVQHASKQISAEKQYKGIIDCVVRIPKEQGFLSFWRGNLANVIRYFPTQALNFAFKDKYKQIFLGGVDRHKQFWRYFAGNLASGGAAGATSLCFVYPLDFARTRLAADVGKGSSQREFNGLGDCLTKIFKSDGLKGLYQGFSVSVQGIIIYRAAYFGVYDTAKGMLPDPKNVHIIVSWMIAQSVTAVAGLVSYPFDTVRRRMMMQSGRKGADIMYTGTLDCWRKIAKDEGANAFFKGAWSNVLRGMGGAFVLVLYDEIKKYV

Nc1ncnc2c1ncn2[C@@H]1O[C@H](COP(=O)(O)OP(=O)(O)OP(=O)(O)O)[C@@H](O)[C@H]1O [ATP]
IC50 [1]: ~14 µM

O=[N+]([O-])c1ccc(O)c([N+](=O)[O-])c1 [DNP, 2,4-dinitrophenol]
whole-IMM patch clamp, WT vs UCP1-/-; GDP block; competition with ATP [2]: Thus, UCP1 is crucial for DNP-induced IH in brown fat mitochondria.

N#CC(C#N)=NNc1ccc(OC(F)(F)F)cc1 [FCCP]
whole-IMM patch clamp (25-250 nM), WT vs AAC1-/-; CATR block (ADP/ATP carrier AAC1): DNP and FCCP activate IH through AAC.
